Results: the NIST ThermoML archive (doi:10.1021/acs.jced.7b00396)
± gives the expanded uncertainty stated by the source.

Settings: for mass density: 700 kPa, Gamma attenuation method; for viscosity: Capillary tube (Ostwald / Ubbelohde) method

C1C[C@@H]2[C@H]3CC[C@H](C3)[C@@H]2C1 [exo-tetrahydrodicyclopentadiene]
mass density (239.8 K, Liquid): 965.9 ± 15 kg/m3 | viscosity (242.7 K, 690 kPa, Liquid): 10.69 ± 1.1 mPa·s | viscosity (242.7 K, 1700 kPa, Liquid): 10.73 ± 1.1 mPa·s | viscosity (242.7 K, 3000 kPa, Liquid): 10.8 ± 1.1 mPa·s | viscosity (242.7 K, 6000 kPa, Liquid): 10.82 ± 1.1 mPa·s | viscosity (262.4 K, 690 kPa, Liquid): 5.78 ± 0.58 mPa·s | viscosity (262.4 K, 1700 kPa, Liquid): 5.82 ± 0.59 mPa·s | viscosity (262.5 K, 3000 kPa, Liquid): 5.828 ± 0.59 mPa·s | viscosity (262.5 K, 6000 kPa, Liquid): 5.888 ± 0.59 mPa·s | mass density (266.2 K, Liquid): 955.9 ± 15 kg/m3 | mass density (290.9 K, Liquid): 945.8 ± 15 kg/m3 | viscosity (303.1 K, 3000 kPa, Liquid): 2.49 ± 0.25 mPa·s | viscosity (303.1 K, 6000 kPa, Liquid): 2.498 ± 0.25 mPa·s | viscosity (303.2 K, 690 kPa, Liquid): 2.479 ± 0.25 mPa·s | viscosity (303.2 K, 1700 kPa, Liquid): 2.483 ± 0.25 mPa·s | mass density (307 K, Liquid): 936.3 ± 15 kg/m3 | viscosity (313.1 K, 690 kPa, Liquid): 1.996 ± 0.2 mPa·s | viscosity (313.2 K, 1700 kPa, Liquid): 2.026 ± 0.2 mPa·s | viscosity (313.2 K, 3000 kPa, Liquid): 2.146 ± 0.22 mPa·s | viscosity (313.2 K, 6000 kPa, Liquid): 2.186 ± 0.22 mPa·s | viscosity (333.1 K, 3000 kPa, Liquid): 1.709 ± 0.17 mPa·s | viscosity (333.1 K, 6000 kPa, Liquid): 1.758 ± 0.18 mPa·s | viscosity (333.2 K, 690 kPa, Liquid): 1.68 ± 0.17 mPa·s | viscosity (333.2 K, 1700 kPa, Liquid): 1.701 ± 0.17 mPa·s | mass density (337.1 K, Liquid): 917.3 ± 15 kg/m3 | viscosity (353.1 K, 690 kPa, Liquid): 1.142 ± 0.11 mPa·s | viscosity (353.1 K, 3000 kPa, Liquid): 1.234 ± 0.12 mPa·s | viscosity (353.1 K, 6000 kPa, Liquid): 1.268 ± 0.13 mPa·s | viscosity (353.2 K, 1700 kPa, Liquid): 1.165 ± 0.12 mPa·s | mass density (368.4 K, Liquid): 890 ± 15 kg/m3 | viscosity (373.1 K, 690 kPa, Liquid): 0.8868 ± 0.089 mPa·s | viscosity (373.1 K, 1700 kPa, Liquid): 0.9068 ± 0.091 mPa·s | viscosity (373.2 K, 3000 kPa, Liquid): 0.9467 ± 0.095 mPa·s | viscosity (373.2 K, 6000 kPa, Liquid): 0.9789 ± 0.098 mPa·s | mass density (391.9 K, Liquid): 877.6 ± 15 kg/m3 | viscosity (393 K, 3000 kPa, Liquid): 0.7365 ± 0.074 mPa·s | viscosity (393.1 K, 1700 kPa, Liquid): 0.7265 ± 0.073 mPa·s | viscosity (393.2 K, 690 kPa, Liquid): 0.7065 ± 0.071 mPa·s | viscosity (393.4 K, 6000 kPa, Liquid): 0.7661 ± 0.077 mPa·s | viscosity (412.9 K, 3000 kPa, Liquid): 0.5811 ± 0.058 mPa·s | viscosity (413.1 K, 1700 kPa, Liquid): 0.5518 ± 0.055 mPa·s | viscosity (413.1 K, 6000 kPa, Liquid): 0.6028 ± 0.06 mPa·s | viscosity (413.2 K, 690 kPa, Liquid): 0.5267 ± 0.053 mPa·s | mass density (428.7 K, Liquid): 857.3 ± 15 kg/m3 | viscosity (433.1 K, 1700 kPa, Liquid): 0.4372 ± 0.044 mPa·s | viscosity (433.1 K, 3000 kPa, Liquid): 0.4776 ± 0.048 mPa·s | viscosity (433.2 K, 690 kPa, Liquid): 0.4172 ± 0.042 mPa·s | viscosity (433.2 K, 6000 kPa, Liquid): 0.4992 ± 0.05 mPa·s | viscosity (453.1 K, 690 kPa, Liquid): 0.3605 ± 0.036 mPa·s | viscosity (453.1 K, 1700 kPa, Liquid): 0.4005 ± 0.04 mPa·s | viscosity (453.1 K, 6000 kPa, Liquid): 0.4321 ± 0.043 mPa·s | viscosity (453.2 K, 3000 kPa, Liquid): 0.3903 ± 0.039 mPa·s | mass density (468.5 K, Liquid): 818.7 ± 16 kg/m3 | viscosity (473.1 K, 6000 kPa, Liquid): 0.3675 ± 0.037 mPa·s | viscosity (473.2 K, 690 kPa, Liquid): 0.3123 ± 0.031 mPa·s | viscosity (473.2 K, 1700 kPa, Liquid): 0.3003 ± 0.03 mPa·s | viscosity (473.2 K, 3000 kPa, Liquid): 0.3204 ± 0.032 mPa·s | mass density (483.8 K, Liquid): 779.5 ± 16 kg/m3 | viscosity (493.1 K, 6000 kPa, Liquid): 0.3055 ± 0.031 mPa·s | viscosity (493.2 K, 690 kPa, Liquid): 0.2255 ± 0.023 mPa·s | viscosity (493.2 K, 1700 kPa, Liquid): 0.2552 ± 0.026 mPa·s | viscosity (493.2 K, 3000 kPa, Liquid): 0.2752 ± 0.028 mPa·s | mass density (510 K, Liquid): 759.3 ± 15 kg/m3 | viscosity (513.1 K, 6000 kPa, Liquid): 0.2964 ± 0.03 mPa·s | viscosity (513.2 K, 690 kPa, Liquid): 0.2054 ± 0.021 mPa·s | viscosity (513.2 K, 1700 kPa, Liquid): 0.2204 ± 0.022 mPa·s | viscosity (513.2 K, 3000 kPa, Liquid): 0.2264 ± 0.023 mPa·s | mass density (532.4 K, Liquid): 737.7 ± 17 kg/m3 | viscosity (533.2 K, 690 kPa, Liquid): 0.1602 ± 0.016 mPa·s | viscosity (533.2 K, 1700 kPa, Liquid): 0.1809 ± 0.018 mPa·s | viscosity (533.4 K, 3000 kPa, Liquid): 0.1837 ± 0.018 mPa·s | viscosity (533.4 K, 6000 kPa, Liquid): 0.2139 ± 0.022 mPa·s | viscosity (552.9 K, 690 kPa, Liquid): 0.1309 ± 0.013 mPa·s | viscosity (552.9 K, 1700 kPa, Liquid): 0.1509 ± 0.015 mPa·s | viscosity (553.3 K, 6000 kPa, Liquid): 0.1899 ± 0.019 mPa·s | viscosity (553.5 K, 3000 kPa, Liquid): 0.1502 ± 0.015 mPa·s | mass density (562.1 K, Liquid): 646.3 ± 18 kg/m3 | viscosity (573.3 K, 6000 kPa, Liquid): 0.1554 ± 0.016 mPa·s | viscosity (573.4 K, 690 kPa, Gas): 0.0304 ± 0.0026 mPa·s | viscosity (573.4 K, 1700 kPa, Liquid): 0.1254 ± 0.013 mPa·s | viscosity (573.4 K, 3000 kPa, Liquid): 0.1354 ± 0.014 mPa·s | viscosity (593.2 K, 690 kPa, Gas): 0.0324 ± 0.0026 mPa·s | viscosity (593.2 K, 1700 kPa, Gas): 0.0394 ± 0.0027 mPa·s | viscosity (593.2 K, 6000 kPa, Liquid): 0.1453 ± 0.015 mPa·s | viscosity (593.3 K, 3000 kPa, Gas): 0.1154 ± 0.0032 mPa·s | mass density (603.4 K, Gas): 25.5 ± 2.7 kg/m3 | viscosity (613 K, 3000 kPa, Gas): 0.1016 ± 0.0031 mPa·s | viscosity (613.4 K, 6000 kPa, Liquid): 0.1316 ± 0.013 mPa·s | viscosity (613.6 K, 690 kPa, Gas): 0.0288 ± 0.0026 mPa·s | viscosity (613.6 K, 1700 kPa, Gas): 0.0389 ± 0.0027 mPa·s | viscosity (633.3 K, 3000 kPa, Gas): 0.0977 ± 0.003 mPa·s | viscosity (633.3 K, 6000 kPa, Liquid): 0.1177 ± 0.012 mPa·s | viscosity (633.4 K, 690 kPa, Gas): 0.0338 ± 0.0026 mPa·s | viscosity (633.4 K, 1700 kPa, Gas): 0.0371 ± 0.0026 mPa·s | mass density (651.6 K, Gas): 22.9 ± 2.7 kg/m3 | viscosity (653.3 K, 690 kPa, Gas): 0.0277 ± 0.0026 mPa·s | viscosity (653.3 K, 1700 kPa, Gas): 0.0328 ± 0.0026 mPa·s | viscosity (653.4 K, 3000 kPa, Gas): 0.0898 ± 0.003 mPa·s | viscosity (653.5 K, 6000 kPa, Liquid): 0.0991 ± 0.01 mPa·s | viscosity (672.3 K, 3000 kPa, Gas): 0.0804 ± 0.0029 mPa·s | viscosity (673.2 K, 6000 kPa, Liquid): 0.0956 ± 0.0096 mPa·s | viscosity (673.3 K, 690 kPa, Gas): 0.0265 ± 0.0026 mPa·s | viscosity (673.3 K, 1700 kPa, Gas): 0.0302 ± 0.0026 mPa·s | mass density (682.7 K, Gas): 29.4 ± 2.7 kg/m3 | viscosity (692.5 K, 690 kPa, Gas): 0.0311 ± 0.0026 mPa·s | viscosity (692.5 K, 1700 kPa, Gas): 0.0321 ± 0.0026 mPa·s | viscosity (692.5 K, 3000 kPa, Gas): 0.0768 ± 0.0028 mPa·s | viscosity (692.5 K, 6000 kPa, Liquid): 0.0927 ± 0.0093 mPa·s | viscosity (713.8 K, 690 kPa, Gas): 0.0276 ± 0.0026 mPa·s | viscosity (713.8 K, 1700 kPa, Gas): 0.0294 ± 0.0026 mPa·s | viscosity (713.8 K, 3000 kPa, Gas): 0.0689 ± 0.0027 mPa·s | viscosity (713.8 K, 6000 kPa, Gas): 0.0889 ± 0.0029 mPa·s | mass density (730.2 K, Gas): 19.5 ± 2.8 kg/m3 | viscosity (734 K, 690 kPa, Gas): 0.0303 ± 0.0026 mPa·s | viscosity (734 K, 1700 kPa, Gas): 0.0324 ± 0.0026 mPa·s | viscosity (734 K, 3000 kPa, Gas): 0.0645 ± 0.0027 mPa·s | viscosity (734 K, 6000 kPa, Gas): 0.0844 ± 0.0028 mPa·s | mass density (744.7 K, Gas): 19.7 ± 2.8 kg/m3 | viscosity (753.3 K, 690 kPa, Gas): 0.0324 ± 0.0026 mPa·s | viscosity (753.3 K, 1700 kPa, Gas): 0.0352 ± 0.0026 mPa·s | viscosity (753.3 K, 3000 kPa, Gas): 0.0628 ± 0.0027 mPa·s | viscosity (753.3 K, 6000 kPa, Gas): 0.0828 ± 0.0028 mPa·s | mass density (771.9 K, Gas): 26.4 ± 2.7 kg/m3 | mass density (803.3 K, Gas): 24.4 ± 2.7 kg/m3 | mass density (833 K, Gas): 25.4 ± 2.7 kg/m3 | mass density (873.3 K, Gas): 24.4 ± 2.7 kg/m3

CCCCCCCC [octane]
viscosity (303.2 K, 5100 kPa, Liquid): 0.5014 ± 0.0046 mPa·s | viscosity (353.1 K, 5100 kPa, Liquid): 0.3078 ± 0.0037 mPa·s | viscosity (403.2 K, 5100 kPa, Liquid): 0.207 ± 0.0031 mPa·s | viscosity (453.1 K, 5100 kPa, Liquid): 0.1465 ± 0.0028 mPa·s | viscosity (503 K, 5100 kPa, Liquid): 0.1049 ± 0.0027 mPa·s | viscosity (553.4 K, 5100 kPa, Liquid): 0.0692 ± 0.0026 mPa·s
